Data on 4 molecules can be found in patent US20240383941A1, “3-ALPHA SUBSTITUTED 3-BETA-HYDROXY-17-OXIMATED ANDROSTANE COMPOUND FOR MODULATION OF THE ALPHA-3 SUBTYPE OF THE GABAA RECEPTOR” (priority 2021, published 2024).

Molecules are shown by their SMILES. Where “and” joins values, the source holds several entries; their conditions need not be identical. Identical values can stand only once. Entries after “also recorded” stand apart in the source; their conditions may differ.

The nature of assay [1]: Weight increase in growing male rats, experiment 1 (5 days IV). In kind it is in vivo, Male Wistar rats. The protocol: (§1) Animals: Male Wistar rats were kept in group cages, with three animals per cage, from delivery and throughout the period of experiments. The individual animals were marked so that they could be identified throughout the experiment duration. The animals weight an average of 152 g upon arrival. A reversed light dark (12:12 h) cycle was used with the dark period onset at 0600 hrs. Altogether fifty-six (56) rats were used in this study (experiment 1+2). The animals were delivered from the breeder Taconic (Denmark). The study protocol was approved by the Regional Ethics Committee of Umea University, Sweden.
(§2) Feeding: Standard chow and water were available ad libitum. A reversed 12-h dark-light cycle with lights off at 10.00 am and lights on at 22.00 pm was used. For identification, the rats were marked with a permanent marker on the tail. To avoid the endogenous allopregnanolone fluctuations that are present in the estrous cycle of female rats, male rats were chosen (Frye et al. 2000). The animals were allowed to acclimatize for at least 3 weeks before start of the experimental sessions. During this period, the rats were repeatedly handled and allowed habituation to the new environment and to all new procedures, to minimize stress during the experiments.
(§3) After 14 days of triad housing, handling and injection training of the animals, the animals were treated for 5 days with IV injections in experiment 1 and 10 days with a daily subcutaneous injection of the assigned treatment in experiment 2 (Table 3 and 4). The injections were given at 08.00 every morning. The animals were weighed the day before onset of the treatment and at the last day of injection i.e. on the 5th or 10th day of treatment. Weight was taken at the time of the last injection. […] The results are shown in FIG. 2 (experiment 1) and FIG. 3 (experiment 2), respectively.

Assay [2] is described as follows: Weight increase in growing male rats, experiment 2 (10 days s.c.). Type of assay: in vivo, Male Wistar rats. On the procedure:
as §1, §2, §3

Assay [3] addresses T1, GABAA receptor subtype α1β2γ2 (Homo sapiens, UniProt P14867+P47870).
T1 construct: expressed in transfected cells
Put plainly: Patch clamp on GABAA receptor subtype α1β2γ2, essentially as described in Example 2. Type of assay: cell-based. Background: Patch clamp records ionic current or voltage across a cell membrane.

Assay [4] has as its target T2, human α3β3γ2L GABAA receptor subtype (Homo sapiens, UniProt P28472+P34903).
T2 construct: expressed in transfected cells; host or cells: HEK-293 cells (wild-type cells obtained from Pasteur Institute, Paris), permanently transfected
Put plainly: Whole-cell patch clamp (Dynaflow) on HEK-293 cells expressing the GABAA receptor α3β3γ2L subtype. In kind it is cell-based. Conditions: for 100 μM GABA mediated current response, area under curve, Mean ± SEM: 1 μM steroid + 100 μM GABA, relative to 100 μM GABA (set as 0%); for reduction (block) of the THDOC enhanced effect / effect on GABAs own effect on current response / reduction of the GABA effect: 100 μM GABA; for reduction (block) of the THDOC enhanced effect / reduction of the GABA effect: stated as size of reduction; for activation of the receptor / own effect in absence of GABA: steroid alone, in absence of GABA and/or THDOC. On the procedure:
Aim: To investigate the effect of 3α-ethynyl-3β-hydroxy-5α-androstan-17-methoxime and 3α-ethyl-3β-hydroxy-5α-androstan-17-oxime, respectively, on the GABAA receptor function. Experiments were performed both in absence and in presence of the GAMS tetrahydrodeoxycorticosterone (THDOC), in the absence and presence of GABA. In these tests the protocol was optimized to be similar to the physiological conditions in the synaptic cleft.
Cell culture: Wild-type HEK-293 cells passage 4 (obtained from Pasteur Institute, Paris, France), permanently transfected with cDNA to express the human α3β3γ2L GABAA receptor subtype, were seeded in cell bind culture flasks, grown and maintained at the temperature of +37° C., with a gas mixture of 5% CO2 in the cell incubator. The transfected cells were used for patch-clamp experiments minimum one passages after defrosting and 3-5 days after seeding. The α3β3γ2L cells were seeded for maximal 15 times.
Electrophysiological recordings: Whole cell patch technique was used to record whole-cell currents from the cells. Patch electrodes were pulled from 1.5 mm O.D., 0.86 mm I.D. borosilicate capillary glass without filament. […] After compensation for liquid junction potential a steady holding potential of −17 mV was used in all experiments. The cells were added to the chip (see below) and kept in EC solution (see above). EC solution with or without steroids and GABA were applied by the Dynaflow™ system (see below). All experiments were performed at room temperature (21-23° C.).
Dynaflow™ system: Dynaflow™ system with Resolve chips was used for all patch-clamp experiments including steroids. The Resolve chip consists of a glass chip enclosed by a PEEK plastic top part and a supporting plastic bottom part. Both wells and channels are glass coated. The channel width is 150 μm and the height 50 μm. The well volume is 150 μL. Run time at the flow rate of 26 μL/min was 90 min. The pump settings were as follows: BD Plastikpak™ 2 mL syringe with inner diameter of 8.1 mm was used. The syringe pump flow rate for Resolve chip was 26 μL/min.
The Resolve chip allows synchronized control of switching between 16 experimental solutions. Laminar flow at each solution outlet of the microfluidic chip prevents mixing, and a computer-controlled stage motor is used to move the chip relative to the patch pipette, allowing for relatively rapid solution exchange around the membrane patch. PClamp 9.0 software, DigiData 1322A converter and AxonPatch 200B were used to generate command pulses and collect data. Clampfit 10.3, Prism 6.0 and excel were used for data analyzes.
GABA and steroids: GABA was dissolved in EC-solution by ultrasound for about 20 minutes at maximal 40° C. to the concentration of 10 mM.
THDOC was dissolved in ethanol 99.5% to the concentration of 0.2 mM and tested steroids dissolved in ethanol 99.5% to the concentration of 2 mM (with ultrasound). The final ethanol concentration was 0.1% in all end-solutions, including the wash solution (EC) and the solution with GABA alone. End-solutions are the solutions added into the wells of the chip.
Protocol: The binding site of THDOC is in the […] region of the receptor. To achieve stable response, the cell was exposed to steroid (THDOC and/or steroid) 20 seconds before GABA application. The standard protocol as follow: 20 s preincubation of steoids (100 nM THDOC alone or in combination with one of 1 μM 3α-ethynyl-3β-hydroxy-5α-androstan-17-methoxime and 3α-ethyl-3β-hydroxy-5α-androstan-17-oxime), followed by 2 s application of 100 μM GABA±steroids (100 nM THDOC alone or in combination with one of 1 μM 3α-ethynyl-3β-hydroxy-5α-androstan-17-methoxime and 3α-ethyl-3β-hydroxy-5α-androstan-17-oxime). Washout time was 120 s.
Steroid (3α-ethynyl-3β-hydroxy-5α-androstan-17-methoxime or 3α-ethyl-3β-hydroxy-5α-androstan-17-oxime)+THDOC, in absence of GABA, were therefore not analyzed. […]

The subject of a further assay is GABAA receptor. Conditions: table 3 in WO 09/142594; cited from earlier work.
[5] abbreviates: 2 mg/kg IV daily for 5 days, in 10% 2-Hydroxypropyl-β-cyclodextrin.
Where [6] appears, read: 1 mg/kg s.c. + 5 mg/kg progesterone + 10 μg/kg 17β-estradiol.

T2 sequence (P34903 29-492): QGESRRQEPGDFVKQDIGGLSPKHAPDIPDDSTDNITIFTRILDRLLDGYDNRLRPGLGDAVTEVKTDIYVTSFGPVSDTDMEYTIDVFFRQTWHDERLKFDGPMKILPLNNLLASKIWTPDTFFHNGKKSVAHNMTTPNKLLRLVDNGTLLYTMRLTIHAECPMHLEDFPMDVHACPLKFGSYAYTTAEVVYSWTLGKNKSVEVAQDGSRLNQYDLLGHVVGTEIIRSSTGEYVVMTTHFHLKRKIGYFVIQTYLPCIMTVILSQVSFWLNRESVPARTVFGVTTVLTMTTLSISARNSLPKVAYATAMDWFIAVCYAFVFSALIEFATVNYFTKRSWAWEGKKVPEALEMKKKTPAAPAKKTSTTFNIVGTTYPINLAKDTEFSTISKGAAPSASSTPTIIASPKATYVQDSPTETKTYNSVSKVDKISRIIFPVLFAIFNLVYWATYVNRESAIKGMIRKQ
T2 sequence (P28472 26-473): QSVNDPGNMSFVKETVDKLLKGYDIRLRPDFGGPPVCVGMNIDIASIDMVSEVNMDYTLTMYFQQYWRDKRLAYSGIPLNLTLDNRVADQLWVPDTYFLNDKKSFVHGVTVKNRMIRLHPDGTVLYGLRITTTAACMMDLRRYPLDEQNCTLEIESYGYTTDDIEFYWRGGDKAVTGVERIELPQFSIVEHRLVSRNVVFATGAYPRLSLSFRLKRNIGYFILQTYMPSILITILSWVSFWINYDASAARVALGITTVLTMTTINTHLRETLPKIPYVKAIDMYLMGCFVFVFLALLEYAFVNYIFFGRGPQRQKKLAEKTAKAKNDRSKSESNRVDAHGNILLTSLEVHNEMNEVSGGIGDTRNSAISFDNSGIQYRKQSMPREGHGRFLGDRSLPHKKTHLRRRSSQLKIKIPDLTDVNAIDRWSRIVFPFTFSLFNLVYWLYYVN
T2 sequence (P18507 40-475 partner): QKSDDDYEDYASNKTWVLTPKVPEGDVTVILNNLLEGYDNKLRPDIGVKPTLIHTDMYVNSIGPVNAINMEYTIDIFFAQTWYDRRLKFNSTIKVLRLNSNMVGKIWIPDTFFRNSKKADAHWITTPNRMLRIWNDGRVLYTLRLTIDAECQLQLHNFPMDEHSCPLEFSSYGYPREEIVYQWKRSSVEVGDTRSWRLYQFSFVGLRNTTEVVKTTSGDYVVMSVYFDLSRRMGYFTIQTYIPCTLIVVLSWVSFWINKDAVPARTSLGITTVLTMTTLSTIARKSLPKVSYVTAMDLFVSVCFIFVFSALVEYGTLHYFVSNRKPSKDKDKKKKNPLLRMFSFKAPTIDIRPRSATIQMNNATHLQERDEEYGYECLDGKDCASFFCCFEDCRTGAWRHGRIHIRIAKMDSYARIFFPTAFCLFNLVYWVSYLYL
T1 sequence (P14867 28-456): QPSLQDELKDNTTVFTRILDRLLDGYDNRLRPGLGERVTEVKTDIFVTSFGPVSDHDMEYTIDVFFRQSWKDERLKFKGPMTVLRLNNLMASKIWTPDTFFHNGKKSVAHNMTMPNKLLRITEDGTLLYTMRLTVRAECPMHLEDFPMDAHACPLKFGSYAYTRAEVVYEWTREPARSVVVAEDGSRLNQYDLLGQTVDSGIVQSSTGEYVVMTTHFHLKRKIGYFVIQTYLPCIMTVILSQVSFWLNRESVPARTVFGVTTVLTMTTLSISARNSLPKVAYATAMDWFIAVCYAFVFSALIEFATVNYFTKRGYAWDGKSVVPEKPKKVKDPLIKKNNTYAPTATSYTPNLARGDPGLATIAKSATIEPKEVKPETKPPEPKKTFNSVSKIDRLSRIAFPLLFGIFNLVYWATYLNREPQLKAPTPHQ
T1 sequence (P47870 25-512 limits assumed): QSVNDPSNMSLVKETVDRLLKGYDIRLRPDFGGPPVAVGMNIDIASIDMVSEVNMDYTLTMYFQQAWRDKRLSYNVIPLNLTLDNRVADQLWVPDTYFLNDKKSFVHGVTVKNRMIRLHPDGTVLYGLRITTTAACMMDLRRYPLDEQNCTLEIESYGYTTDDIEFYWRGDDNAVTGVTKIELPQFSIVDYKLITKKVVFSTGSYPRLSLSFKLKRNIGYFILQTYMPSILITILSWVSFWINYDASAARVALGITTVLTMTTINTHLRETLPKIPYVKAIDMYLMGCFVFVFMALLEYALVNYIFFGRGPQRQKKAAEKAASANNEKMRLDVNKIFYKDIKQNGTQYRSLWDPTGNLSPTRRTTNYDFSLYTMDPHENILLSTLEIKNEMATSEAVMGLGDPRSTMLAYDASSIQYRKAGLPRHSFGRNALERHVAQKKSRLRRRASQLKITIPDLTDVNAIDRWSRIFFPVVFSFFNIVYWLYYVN
T1 sequence (P18507 40-475 partner): as the sequence (P18507 40-475 partner) above

With `C#C[C@]1(O)CC[C@@]2(C)[C@@H](CC[C@@H]3[C@@H]2CC[C@]2(C)C(=O)CC[C@@H]32)C1` [3α-ethynyl-3β-hydroxy-5α-androstan-17-one], in assay [1] (setting [5]), the “Mean weight increase since arrival” value is 97.43 g and the “Mean weight increase since treatment start” value is 11.86 g. For the same molecule, the “increase in weight compared to vehicle treated groups” value in assay [1] (2 mg/kg IV, 5 days) was “significantly lower”. Besides, in assay [2] (setting [6]), the “weight difference compared to vehicle” value is -33 ± 4.4 g and the “weight difference versus E+P control rats” value was -23.9 ± 4.4 g. In addition, the “weight difference versus E+P control rats” value in assay [2] (5 mg/kg s.c. + 5 mg/kg progesterone + 10 μg/kg 17β-estradiol) is -20.4 ± 5.2 g. Further, in assay [2] (s.c.), the “weight difference after 10 days of treatment compared to vehicle” value is listed as “over 20%”. Further, the “Effect against GABAs agonistic effect, α1β2γ2” value in assay [3] (1 μM steroid) is −1.9 ± 2.4%. Besides, the “Antagonism of 100 nM THDOC-enhancement, α1β2γ2” value in assay [3] (1 μM steroid + THDOC) was “No effect”. In assay [4] (1 μM steroid + THDOC, Table 6), the “Antagonism of 100 nM THDOC-enhancement, α3β3γ2” value was −166 ± 19.9%,. Further, the “Effect against GABAs agonistic effect, α3β3γ2” value in assay [4] (1 μM steroid, Table 6) is −46 ± 1.3%,. The “effect as a GAMSA or GAMS” value with GABAA receptor is “no effect”.

Regarding `C#C[C@]1(O)CC[C@]2(C)C3CC[C@]4(C)/C(=N\OC)CCC4C3CC[C@H]2C1` (stereo partly drawn) [GR3053, 3α-ethynyl-3β-hydroxy-5α-androstan-17-methoxime], in assay [4], the “100 μM GABA mediated current response, area under curve, Mean ± SEM” value is −20 ± 2.1% and the “activation of the receptor / own effect in absence of GABA” value is on record as “None”. Moreover, the “100 μM GABA mediated current response, area under curve, Mean ± SEM” value in assay [4] (listed as 3α-ethynyl-3β-hydroxy-5α-androstan-17-methoxime) is on record as −20%. For the same molecule, in assay [4] (1 μM steroid, 100 nM THDOC), the “reduction (block) of the THDOC enhanced effect” value is > 100% and 190%. Also, in assay [4] (1 μM steroid), the “effect on GABAs own effect on current response” value is reported as “some antagonistic effect; also recorded: partial antagonistic effect” and the “reduction of the GABA effect” value amounted to 20%.

For the molecule `CC[C@]1(O)CC[C@]2(C)C3CC[C@]4(C)/C(=N\O)CCC4C3CC[C@H]2C1` (stereo partly drawn) [GR3055, 3α-ethyl-3β-hydroxy-5α-androstan-17-oxime], in assay [4], the “100 μM GABA mediated current response, area under curve, Mean ± SEM” value is recorded as −18 ± 3.4%, and the “activation of the receptor / own effect in absence of GABA” value is listed as “None”. For the same molecule, the “100 μM GABA mediated current response, area under curve, Mean ± SEM” value in assay [4] (listed as 3α-ethyl-3β-hydroxy-5α-androstan-17-oxime) was −18%. In assay [4] (1 μM steroid, 100 nM THDOC), the “reduction (block) of the THDOC enhanced effect” value was found to be 57%. Moreover, in assay [4] (1 μM steroid), the “effect on GABAs own effect on current response” value is “partial antagonistic effect” and the “reduction of the GABA effect” value is reported as 18%.

On to `C[C@]12CC[C@@H](O)C[C@@H]1CC[C@@H]1[C@@H]2CC[C@]2(C)[C@@H](C(=O)CO)CC[C@@H]12` [THDOC, 3α, 21-dihydroxy-5α-pregnan-20-one, reference compound], for which, in assay [4] (100 nM THDOC, in absence of GABA), the “activation of the α3β3γ2L GABAA receptor by THDOC alone” value is “did not activate”.
